Calls of active or inactive are those of the source.
Tests used:
RAW264.7 [1] = test: Anti-inflammatory activity in mouse RAW264.7 cells assessed as inhibition of LPS-stimulated NO production by Griess assay; assay type: functional, cell-based
RAW264.7 [2] = test: Inhibition of NF-kB signaling in mouse RAW264.7 cells assessed as reduction in LPS-stimulated IL-6 mRNA level preincubated for 2 hrs followed by LPS stimulation measured after 4 hrs by qRT-PCR assay; assay type: cell-based
RAW264.7 [3] = test: Anti-inflammatory activity in mouse RAW264.7 cells assessed as inhibition of LPS-stimulated NO production preincubated for 2 hrs followed by LPS stimulation measured after 18 hrs by Griess assay; assay type: functional, cell-based
[4] = biological target: Transcription factor p65 (Mus musculus) (UniProt Q04207); test: Inhibition of NF-kB p65 phosphorylation in mouse RAW264.7 cells at 3.3 to 30 uM preincubated for 2 hrs followed by LPS stimulation measured after 30 mins by Western blot method; assay type: cell-based
RAW264.7 [5] = test: Inhibition of NF-kB signaling in mouse RAW264.7 cells assessed as reduction in LPS-stimulated iNOS mRNA level preincubated for 2 hrs followed by LPS stimulation measured after 24 hrs by qRT-PCR method; assay type: cell-based
[6] = biological target: Transcription factor p65 (Mus musculus) (UniProt Q04207); test: Inhibition of LPS-stimulated NF-kB p65 signaling pathway in mouse RAW264.7 cells assessed as reduction in p65 nuclear translocation at 3.3 to 30 uM preincubated for 2 hrs followed by LPS stimulation measured after 30 mins by Western blot method; assay type: cell-based
[7] = biological target: Transcription factor p65 (Mus musculus) (UniProt Q04207); test: Inhibition of NF-kB p65 signaling pathway in mouse RAW264.7 cells assessed as reduction in LPS-stimulated IkBalpha phosphorylation at 3.3 to 30 uM preincubated for 2 hrs followed by LPS stimulation measured after 30 mins by Western blot method; assay type: cell-based
RAW264.7 [8] = test: Inhibition of NF-kB signaling in mouse RAW264.7 cells assessed as reduction in LPS-stimulated IL-1beta mRNA level preincubated for 2 hrs followed by LPS stimulation measured after 4 hrs by qRT-PCR assay; assay type: cell-based
RAW264.7 [9] = test: Inhibition of NF-kB signaling in mouse RAW264.7 cells assessed as reduction in LPS-stimulated TNFalpha mRNA level preincubated for 2 hrs followed by LPS stimulation measured after 4 hrs by qRT-PCR assay; assay type: cell-based
RAW264.7 [10] = test: Inhibition of NF-kB signaling in mouse RAW264.7 cells assessed as reduction in LPS-stimulated iNOS protein level at 3.3 to 30 uM preincubated for 2 hrs followed by LPS stimulation measured after 4 hrs by Western blot assay; assay type: cell-based
RAW264.7 [11] = test: Cytotoxicity against LPS-stimulated mouse RAW264.7 cells assessed as reduction in cell viability at 3.3 to 90 uM after 24 hrs by MTT assay; assay type: cell-based; details: raw264.7, 24 h
[12] = biological target: Transcription factor p65 (Mus musculus) (UniProt Q04207); test: Inhibition of LPS-stimulated NF-kB p65 signaling pathway in mouse RAW264.7 cells assessed as IkBalpha accumulation at 3.3 to 30 uM preincubated for 2 hrs followed by LPS stimulation measured after 30 mins by Western blot method; assay type: cell-based

Transcription factor p65 (Mus musculus), sequence (Q04207 whole entry): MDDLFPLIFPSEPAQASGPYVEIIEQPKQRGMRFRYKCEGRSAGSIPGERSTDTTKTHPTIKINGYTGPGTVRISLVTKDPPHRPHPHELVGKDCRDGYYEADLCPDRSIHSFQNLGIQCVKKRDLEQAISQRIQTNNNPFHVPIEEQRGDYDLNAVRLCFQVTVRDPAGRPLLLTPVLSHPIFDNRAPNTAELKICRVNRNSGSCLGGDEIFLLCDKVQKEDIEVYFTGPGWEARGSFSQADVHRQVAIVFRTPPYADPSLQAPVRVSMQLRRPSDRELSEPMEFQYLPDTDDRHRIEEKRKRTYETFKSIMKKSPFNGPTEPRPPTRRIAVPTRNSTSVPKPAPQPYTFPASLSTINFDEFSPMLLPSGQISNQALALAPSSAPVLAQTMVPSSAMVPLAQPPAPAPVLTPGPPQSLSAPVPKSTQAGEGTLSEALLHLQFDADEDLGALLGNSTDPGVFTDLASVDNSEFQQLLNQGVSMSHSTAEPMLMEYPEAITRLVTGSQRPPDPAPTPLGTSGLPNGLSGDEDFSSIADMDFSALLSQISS

CCCc1c(C(C)=O)c(O)cc2c1C(=O)C[C@H](O)C2
51.2 µM: IC50 (RAW264.7 [1])

CC(=O)CC1(O)CC(=O)c2c(C)cc(O)cc2O1 (configuration not stated)
active: inhibition (RAW264.7 [2]) Dose-dependent effect | inhibition (RAW264.7 [3]) Dose-dependent effect | inhibition [4] | inhibition (RAW264.7 [5]) Dose-dependent effect | inhibition [6] | inhibition [7] | inhibition (RAW264.7 [8]) Dose-dependent effect | inhibition (RAW264.7 [9]) Dose-dependent effect | inhibition (RAW264.7 [10]) | inhibition [12]
Non-Toxic: Activity (RAW264.7 [11])

Reference: ChEMBL document CHEMBL4184272, “Violacin A, a new chromanone produced by Streptomyces violaceoruber and its anti-inflammatory activity” (Bioorg Med Chem Lett, 2018)
